Data from patent publication US4407794A, “Peptides and therapeutic applications thereof” (Centre National de la Recherche Scientifique (CNRS), priority 1980, dated 1983).
Peptide text beside a SMILES is read from it.

Tests used:
[1] = test system: rats; assay: Anti-diarrhea action, castor oil test; type: in vivo; settings: 10 rats, one hour prior to castor oil
Experimental: This action was investigated by the castor oil test in rats, using the method according to Niemegeers and co-workers (Arzn.-Forsch. 22, 516-518, 1972).
The tests were conducted with male rats of 160-220 g body weight. After an 18 hr fasting period, each animal was orally administered 1 ml castor oil.
The test compounds, dissolved in water, were administered orally under a volume of 0.5 ml per 100 g body weight, one hour prior to the castor oil administration.

[2] = target: μ receptors (Cavia porcellus, UniProt P97266); assay: Inhibition of the contraction of the isolated guinea-pig ileum induced by coaxial stimulation; type: cell-based, guinea-pigs; settings: for ILEUM Relative action: % activity with respect to Met-Enkephalin=100; for IC50: isolated guinea-pig ileum, coaxial stimulation, number of experiments in parentheses, read-out: ILEUM IC 50
μ receptors, sequence (P97266 whole entry, looked up): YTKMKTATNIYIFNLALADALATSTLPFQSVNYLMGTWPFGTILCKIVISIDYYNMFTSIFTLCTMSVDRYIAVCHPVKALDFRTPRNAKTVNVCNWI
Experimental: (§1) The study of the action on μ receptors or on σ receptors was conducted as a function of the effect on the isolated ileum of guinea-pigs or on the vas deferens of mice.
The action on the μ receptors was determined by the measure of the 50% inhibiting concentration (IC 50) of the contraction of the isolated ileum of guinea-pigs, induced by coaxial stimulation (PATON W.D.M., Brit.J. Pharm. 1959, 12, 119).
The 50% inhibiting concentrations are expressed as nanomolar/liter concentrations. Each product is tested with respect to Met-Enkephalin as reference material and the results obtained are also expressed as % activity with respect to Met-Enkephalin=100.
(§2) The ratio [formula] makes it possible to find out whether the test material is […] σ- specific. In said Table, the number of experiments is indicated between parentheses.

[3] = test system: rats; assay: Naxolone susceptibility test, appearance of dependence (abstinence jumps); type: in vivo; settings: 25 mg/kg 4 times a day for 10 days, Naxolone 10 mg/kg s.c. on the 10th day
Experimental: This test makes it possible to evaluate the dependence induced by chronic administration of morphinic analgesics. It comprises inducing the dependence condition after 10 days of treatment by injection of a high doage of an antagonist: naxolone. Compound 1 was tested by ICV administration in rats, using the technique according to Frederickson et al., Res. Common.Pathol.Pharmacol. 5, 867(1973).
The results obtained are set forth in Table IV below and are compared with those obtained with morphine.

[4] = test system: liberation of dopamine; assay: Spontaneous liberation of dopamine, ICV injection tests; type: in vivo
[5] = type: cell-based, mice; settings: mouse vas deferens, electric stimulation; number of experiments in parentheses; read-out: VAS DEFERENS IC 50
Experimental: as §1
(§3) The action on the σ receptors was determined by the measure of the 50% inhibiting concentration (IC 50) of the contraction of the vas deferens of mice, induced by electric stimulation.
(§4) The 50% inhibiting concentrations are expressed as nanomolar/liter concentrations.
as §2

[6] = test system: σ receptors; type: cell-based, mice; settings: for VAS DEFERENS Relative action: % activity with respect to Met-Enkephalin=100; for R IC 50 ileum / IC 50 V.D.: ratio of ileum (μ) IC50 to vas deferens IC50
Experimental: as §1, §3, §4, §2

[7] = test system: mice; assay: Analgesic activity, hot-plate (65° C.) test, i.v.; type: in vivo; settings: for Reaction time (s) 15' Licking: 15 minutes; for Reaction time (s) 30' Leap: 30 minutes; for Reaction time (s) 60' Adjusted jump: 60 minutes; for Reaction time (s) 90' Adjusted jump: 90 minutes
Experimental: The compounds were tested in vivo by the intravenous route (i.v.) in mice, using the hot-plate (65° C.) test in mice, according to the method disclosed by JACOB & BLOZOVSKI (Arch.Int.Pharmacodyn. 1961, 33,296) by determination of the licking reflex at 15 minutes, of the leap at 30 minutes and of the adjusted jump at 60 and 90 minutes.
DAla2 Met-Enkephalin was used as reference material.

[8] = test system: rats; assay: Locomotor activity after i.v. administration; type: in vivo; settings: 5 mg/kg i.v., male rats, group of 10; saline reference group 100 ± 15%
Experimental: This preferential effect of δ-specific compound I on the dopaminergic receptors may be evidenced by i.v. administration of compound I and determination of the locomotor activity according to STINUS et al. Proc.Natl. Acad.Sci.USA 77, 2302 (1980). Each experiment was conducted on a group of 10 animals (male rats weighing 200-250 g) and the results obtained were compared with those of a reference group.

Compound: COc1ccc2c3c1O[C@H]1[C@@H](O)C=C[C@H]4[C@@H](C2)N(C)CC[C@@]341 [Codein base]
- Number of non-diarrheic animals 2 hours ([1]; 3 mg/kg orally): 7
- Number of non-diarrheic animals 4 hours ([1]; 3 mg/kg orally): 4
- Number of non-diarrheic animals 2 hours ([1]; 10 mg/kg orally): 10
- Number of non-diarrheic animals 4 hours ([1]; 10 mg/kg orally): 7

Compound: CN1CC[C@]23c4c5ccc(O)c4O[C@H]2[C@@H](O)C=C[C@H]3[C@H]1C5.Cl [Morphin (hydrochloride)]
- Number of non-diarrheic animals 2 hours ([1]; 1 mg/kg orally): 9
- Number of non-diarrheic animals 4 hours ([1]; 1 mg/kg orally): 4
- Number of non-diarrheic animals 2 hours ([1]; 3 mg/kg orally): 10
- Number of non-diarrheic animals 4 hours ([1]; 3 mg/kg orally): 6

Compound: CC(C)C[C@H](NC(=O)[C@H](Cc1ccccc1)NC(=O)CNC(=O)[C@@H](CO)NC(=O)[C@@H](N)Cc1ccc(O)cc1)C(=O)N[C@H](C(=O)O)[C@@H](C)O [Example 1, TyrD.SerGlyPheLeuThr]
- ILEUM Relative action [2]: 55%
- IC50 [2]: 637 nM
- Abstinence test (jumps) [3]: 10 ± 2 jumps
- Increase of spontaneous liberation of dopamine ([4]; 5×10^-8 M): 100%
- IC50 [5]: 0.8 nM
- VAS DEFERENS Relative action [6]: 2250%
- R IC 50 ileum / IC 50 V.D. [6]: 796
- Reaction time (s) 15' Licking ([7]; 35 mg/kg i.v.): 29.4 ± 3.2 s
- Reaction time (s) 30' Leap ([7]; 35 mg/kg i.v.): 30.1 ± 5.7 s
- Reaction time (s) 60' Adjusted jump ([7]; 35 mg/kg i.v.): 28.6 ± 7.2 s
- Reaction time (s) 90' Adjusted jump ([7]; 35 mg/kg i.v.): 32.2 ± 9.2 s
- Locomotor activity [8]: 65 ± 10%

Compound: CCCC[C@H](NC(=O)[C@H](Cc1ccccc1)NC(=O)CNC(=O)[C@@H](CO)NC(=O)[C@@H](N)Cc1ccc(O)cc1)C(=O)N[C@H](C(=O)O)[C@@H](C)O [Example 25, TyrD.SerGlyPheN.LeuThr]
- IC50 [2]: 1050 nM

Compound: CN1CC[C@]23c4c5ccc(O)c4O[C@H]2[C@@H](O)C=C[C@H]3[C@H]1C5 [Morphin, morphine]
- Abstinence test (jumps) [3]: 74 ± 11 jumps
- Increase of spontaneous liberation of dopamine ([4]; 10^-6 M): 50%

Compound: DAla^2 Met.Enkamide
- Increase of spontaneous liberation of dopamine ([4]; 10^-6 M): 100%

Compound: CC(C)C[C@@H](NC(=O)[C@H](Cc1ccccc1)NC(=O)CNC(=O)[C@@H](CO)NC(=O)[C@@H](N)Cc1ccc(O)cc1)C(=O)O [Example 45, TyrD.SerGlyPheD.Leu] (HELM PEPTIDE1{Y.[dS].G.F.[dL]}$$$$V2.0)
- IC50 [2]: 247 nM

Compound: CSCC[C@H](NC(=O)[C@H](Cc1ccccc1)NC(=O)CNC(=O)[C@@H](C)NC(=O)[C@@H](N)Cc1ccc(O)cc1)C(=O)NCCCCCNS(=O)(=O)c1cccc2c(N(C)C)cccc12 [Example 13 of patent FR 78 12 543]
- ILEUM Relative action [2]: 110%
- IC50 [5]: 650 nM
- VAS DEFERENS Relative action [6]: 2.7%
- R IC 50 ileum / IC 50 V.D. [6]: 0.49

Compound: D.Ala2 Met-Enkephalin
- Reaction time (s) 15' Licking ([7]; 100 mg/kg i.v.): 5.5 ± 1 s
- Reaction time (s) 30' Leap ([7]; 100 mg/kg i.v.): 5.5 ± 1.6 s
- Reaction time (s) 60' Adjusted jump ([7]; 100 mg/kg i.v.): 5.5 ± 1.2 s
- Reaction time (s) 90' Adjusted jump ([7]; 100 mg/kg i.v.): 5.6 ± 2 s

Compound: CC(C)C[C@H](NC(=O)[C@H](Cc1ccccc1)NC(=O)CNC(=O)[C@@H](C)NC(=O)[C@@H](N)Cc1ccc(O)cc1)C(=O)N[C@H](C(=O)O)[C@@H](C)O [Example 2, TyrD.AlaGlyPheLeuThr] (HELM PEPTIDE1{Y.[dA].G.F.L.T}$$$$V2.0)
- IC50 [2]: 500 nM

Compound: CSCC[C@H](NC(=O)[C@H](Cc1ccccc1)NC(=O)CNC(=O)CNC(=O)[C@@H](N)Cc1ccc(O)cc1)C(=O)O [Met-Enkephalin]
- ILEUM Relative action [2]: 100%
- IC50 [2]: 354 nM
- VAS DEFERENS Relative action [6]: 100%
